Measurements taken from ChEMBL document CHEMBL4422679, “Unexpected equivalent potency of a constrained chromene enantiomeric pair rationalized by co-crystal structures in complex with estrogen receptor alpha” (Bioorg Med Chem Lett, 2019).
pIC50: −log10 of the molar value.

Key:
MCF7 = experiment: Antiproliferative activity against human MCF7 cells after 3 days by CellTiter-Glo luminescent cell viability assay; type: functional, cell-based
[1] = Clearance in Sprague-Dawley rat at 1 mg/kg, iv or 1 mg/kg, po; type: ADME, organism-based; conditions: in vivo
[2] = Oral bioavailability in Sprague-Dawley rat at 1 mg/kg; type: ADME, organism-based; conditions: in vivo
[3] = Octanol-buffer distribution coefficient, log D of the compound at pH 7.4; type: physicochemical
Rattus norvegicus [4] = experiment: In vivo antagonist activity at estrogen receptor in Sprague-Dawley rat assessed as reduction in ethynylestradiol-stimulated increase in uterine wet weight at 0.1 mg/kg, po administered once daily via gavage for 3 days measured 24 hrs post last dose relative to control; type: functional; parameters: scale not given: the % may be the effect or the level left
Rattus norvegicus [5] = experiment: In vivo antagonist activity at estrogen receptor in Sprague-Dawley rat assessed as reduction in ethynylestradiol-stimulated increase in uterine wet weight at 10 mg/kg, po administered once daily via gavage for 3 days measured 24 hrs post last dose relative to control; type: functional; parameters: scale not given: the % may be the effect or the level left
Rattus norvegicus [6] = experiment: In vivo antagonist activity at estrogen receptor in Sprague-Dawley rat assessed as reduction in ethynylestradiol-stimulated increase in uterine wet weight administered once daily via oral gavage for 3 days measured 24 hrs post last dose; type: functional, organism-based
Estrogen receptor = target: T1, Estrogen receptor (Homo sapiens, UniProt P03372)
T1 sequence (P03372 whole entry): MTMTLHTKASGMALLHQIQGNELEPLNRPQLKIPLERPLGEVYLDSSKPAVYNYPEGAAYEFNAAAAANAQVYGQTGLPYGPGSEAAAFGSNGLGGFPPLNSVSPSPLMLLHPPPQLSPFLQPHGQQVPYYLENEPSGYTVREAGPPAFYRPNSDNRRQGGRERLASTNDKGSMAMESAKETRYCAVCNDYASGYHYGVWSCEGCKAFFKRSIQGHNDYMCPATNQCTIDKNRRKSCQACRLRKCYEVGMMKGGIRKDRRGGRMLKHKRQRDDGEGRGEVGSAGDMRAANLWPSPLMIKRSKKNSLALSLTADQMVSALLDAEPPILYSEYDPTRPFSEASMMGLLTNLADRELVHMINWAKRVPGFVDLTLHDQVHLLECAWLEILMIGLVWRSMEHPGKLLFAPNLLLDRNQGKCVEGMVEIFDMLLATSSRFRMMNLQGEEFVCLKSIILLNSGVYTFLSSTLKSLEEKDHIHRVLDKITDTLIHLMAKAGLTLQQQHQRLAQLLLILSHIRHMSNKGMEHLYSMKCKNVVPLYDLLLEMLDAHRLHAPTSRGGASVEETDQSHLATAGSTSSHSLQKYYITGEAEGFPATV
Description: Induction of ERalpha degradation in human MCF7 cells after 4 hrs by Alexafluor-488 conjugate anti-mouse IgG antibody/Hoechst 33342 staining based immunofluorescence imaging analysis

Rattus norvegicus [7] = experiment: In vivo antagonist activity at estrogen receptor in Sprague-Dawley rat assessed as reduction in ethynylestradiol-stimulated increase in uterine wet weight at 60 mg/kg, po administered once daily via gavage for 3 days measured 24 hrs post last dose relative to control; type: functional; parameters: scale not given: the % may be the effect or the level left

Compound | pIC50 (MCF7; Homo sapiens, MCF7, 72 h) | pIC50 (Estrogen receptor) | pIC50 (MCF7; mcf7) | other results
Oc1ccc2c(c1)O[C@@H](c1ccc(OCCN3CC(CF)C3)cc1)C1=C2CCOc2cc(O)ccc21 | 9.40 |  |  | clearance [1]: 57 mL/min/kg; bioavailability [2]: 3.2%; logD [3]: 3; Activity (Rattus norvegicus [4]): 17%; Activity (Rattus norvegicus [5]): 87%; Activity (Rattus norvegicus [6]): Dose-dependent effect
CC1=C(c2cccc(O)c2)[C@H](c2ccc(OCCN3CC(CF)C3)cc2)Oc2ccc(O)cc21 | 9.70 |  |  | clearance [1]: 85 mL/min/kg; bioavailability [2]: 16%; logD [3]: 2.9; Activity (Rattus norvegicus [5]): 105.7%
C[C@@H](COc1ccc(C2Oc3cc(O)ccc3C3=C2c2ccc(O)cc2OCC3)cc1)N1CC[C@@H](CF)C1 (some centres not stated) | 9.70 |  |  | 
Oc1ccc2c(c1)O[C@H](c1ccc(OCCN3CC(CF)C3)cc1)C1=C2CCOc2cc(O)ccc21 | 9.05 |  |  | logD [3]: 3.2
Oc1ccc2c(c1)OC(c1ccc(OCCN3CC[C@@H](CF)C3)cc1)C1=C2CCOc2cc(O)ccc21 (some centres not stated) | 9.52 |  |  | 
Oc1ccc2c(c1)OC(c1ccc(OCCN3CCCCC3)cc1)C1=C2CCOc2cc(O)ccc21 (racemic) | 8.92 | 9.55 |  | 
Oc1ccc2c(c1)OC(c1ccc(OCCN3CC(CF)C3)cc1)C1=C2CCOc2cc(O)ccc21 (racemic) | 9.15 |  |  | 
Oc1ccc2c(c1)OCCC1=C2C(c2ccc(OCCN3CC(CF)C3)cc2)Oc2ccc(O)cc21 (stereo in doubt; 17a) |  |  | 9.52 | 
CC/C(=C(\c1ccccc1)c1ccc(OCCN(C)C)cc1)c1ccccc1 [TAMOXIFEN] |  |  |  | Activity (Rattus norvegicus [7]): 36%

Now from value to compound, other results behind:

pIC50 (MCF7; Homo sapiens, MCF7, 72 h) | pIC50 (Estrogen receptor) | pIC50 (MCF7; mcf7) | Compound | other results
9.22 |  |  | Oc1ccc2c(c1)OCCC1=C2C(c2ccc(OCCN3CC(CF)C3)cc2)Oc2ccc(O)cc21 (stereo in doubt; 17b) | clearance [1]: 237 mL/min/kg; logD [3]: 2.7
 | 9.21 | 8.30 | Oc1ccc2c(c1)OC(c1ccc(OCCN3CC(CF)C3)cc1)C1=C2CCOc2ccc(O)cc21 (stereo in doubt; 18a) | 
 | 8.02 | 7.70 | Oc1ccc2c(c1)OC(c1ccc(OCCN3CC(CF)C3)cc1)C1=C2CCOc2ccc(O)cc21 (stereo in doubt; 18b) | 
 | 9.62 | 9.10 | Oc1ccc2c(c1)C1=C(c3cc(O)ccc3OCC1)C(c1ccc(OCCN3CC(CF)C3)cc1)O2 (stereo in doubt; 19a) | 
 | 8.49 | 8.00 | Oc1ccc2c(c1)C1=C(c3cc(O)ccc3OCC1)C(c1ccc(OCCN3CC(CF)C3)cc1)O2 (stereo in doubt; 19b) | 
